Values of other authors as cited in US20090105195A1, “COMPOSITION COMPRISING MICROBICIDAL ACTIVE INGREDIENTS” (priority 2007, published 2009).

Key:
Conditions in all cases: at low amounts, such as 0.025%
[1] = tested on: Human Papilloma Virus (HPV)
Herpes Simplex Virus = tested on: Herpes Simplex Virus
[2] = tested on: Human Immunodeficiency Virus

CCCCCCCCCCCCOS(=O)(=O)[O-].[Na+] [SLS, sodium lauryl sulfate]
complete inactivation: inactivation of Human Papilloma Virus (HPV) [1] | inactivation of Herpes Simplex Virus (Herpes Simplex Virus) | inactivation of Human Immunodeficiency Virus [2]
